Reference: publication PMC11705080 (2025)

Tests used:
[1] = tested on: poly[d(A-T)2] (DNA, polymer) AT; test: ethidium bromide displacement (fluorescence); details: 12.5 μM EtBr displaced, 12.5 μM DNA, 1 h, per base
[2] = tested on: FRET-1 (DNA, hairpin) CGCGAATTCGCGAAAAACGCGAATTCGCG; test: fluorescence (FRET) melting, Bard equation; details: 1.0 μM DNA; r = 0–7; derived from Tm fraction bound; 37 °C pre-incubation
[3] = tested on: FRET-4 (DNA, hairpin) ATGGCCGGCCGGAAAAACCGGCCGGCCAT; test: fluorescence (FRET) melting; details: 10 μM compound (r = 10), 1.0 μM DNA; control Tm 83.0 °C; condensation; +1.21 °C at r = 2.5
[4] = tested on: poly[d(G-C)2] (DNA, polymer) GC; test: limited-bound ethidium bromide fluorescence quenching, Hill model; details: Na+ (40 mM NaCl); 80 mM HEPES pH 7.2; 5 μM EtBr, 25 μM DNA; EtBr fluorescence quenched; per base
[5] = tested on: poly[d(A-T)2] (DNA, polymer) AT; test: as above; details: Na+ (40 mM NaCl); 80 mM HEPES pH 7.2; 5 μM EtBr, 25 μM DNA; EtBr fluorescence quenched; per base
[6] = tested on: F-1 (DNA, hairpin) CGCGAATTCGCGAAAAACGCGAATTCGCG; test: MST instrument, initial fluorescence, Hill model; details: Na+ (25 mM NaCl); 80 mM HEPES; 1 μM DNA; low 10^–5 M; fluorescence decrease ascribed to DNA condensation
[7] = tested on: F-2 (DNA, hairpin) GCATTATAATGCAAAAAGCATTATAATGC; test: MST instrument, initial fluorescence, Hill model; details: Na+ (25 mM NaCl); 80 mM HEPES; 1 μM DNA; fluorescence decrease ascribed to DNA condensation
[8] = tested on: F-4 (DNA, hairpin) ATGGCCGGCCGGAAAAACCGGCCGGCCAT; test: MST instrument, initial fluorescence, Hill model; details: Na+ (25 mM NaCl); 80 mM HEPES; 1 μM DNA; low 10^–5 M; fluorescence decrease ascribed to DNA condensation
[9] = tested on: poly[d(G-C)2] (DNA, polymer) GC; test: ethidium bromide displacement (fluorescence); details: 12.5 μM EtBr displaced, 12.5 μM DNA, 1 h, per base
[10] = tested on: FRET-2 (DNA, hairpin) GCATTATAATGCAAAAAGCATTATAATGC; test: fluorescence (FRET) melting; details: 10 μM compound (r = 10), 1.0 μM DNA; control Tm 61.5 °C
[11] = tested on: FRET-3 (DNA, hairpin) ATCGGCGCCGATAAAAAATCGGCGCCGAT; test: fluorescence (FRET) melting; details: 10 μM compound (r = 10), 1.0 μM DNA; control Tm 79.7 °C; condensation; +0.48 °C at r = 2
[12] = tested on: FRET-1 (DNA, hairpin) CGCGAATTCGCGAAAAACGCGAATTCGCG; test: fluorescence (FRET) melting; details: 7 μM compound (r = 7), 1.0 μM DNA; control Tm 74.9 °C
[13] = tested on: FRET-2 (DNA, hairpin) GCATTATAATGCAAAAAGCATTATAATGC; test: fluorescence (FRET) melting, Bard equation; details: 1.0 μM DNA; r = 0–10; derived from Tm fraction bound; 37 °C pre-incubation
[14] = tested on: F-3 (DNA, hairpin) ATCGGCGCCGATAAAAAATCGGCGCCGAT; test: MST instrument, initial fluorescence, Hill model; details: Na+ (25 mM NaCl); 80 mM HEPES; 1 μM DNA; low 10^–5 M; fluorescence decrease ascribed to DNA condensation
[15] = apparent, complex prepared in situ, Kapp = Kb × 12.6/C50

C50 [1]: 3.911 µM
Kapp [1, 15]: 2.84e+07 M⁻¹
Kb [2]: 1.06e+07 M⁻¹
Δ TM [3]: - 6.3 °C
Q (EC50) [4]: 12.86 µM
Q (EC50) [5]: 11.18 µM
EC50 [6]: 11.92 µM
EC50 [7]: 9.2 × 10^–6 M
EC50 [8]: 11.25 µM
C50 [9]: 6.318 µM
Kapp [9, 15]: 1.75e+07 M⁻¹
Δ TM [10]: + 3.6 °C
Δ TM [11]: - 3.7 °C
Δ TM [12]: + 4.5 °C
Kb [13]: 4.38e+08 M⁻¹
EC50 [14]: 11.39 µM
SMILES: O=[N+]([O-])[O-].O=[N+]([O-])[O-].O=[N+]([O-])[O-].O=[N+]([O-])[O-].[Cu+2].[Cu+2].c1cnc2c(c1)cc(-n1cc(CCCCc3cn(-c4cc5cccnc5c5ncccc45)nn3)nn1)c1cccnc12
